What was measured:
Bacillus subtilis = assay: Binding dissociation constant towards 3'-Fl-AM1A-Rhd in Bacillus subtilis tyrS; format: functional
Nucleic Acid = assay: Maximum Frel value for binding to 3'-Fl-AM1A-Rhd in Bacillus subtilis tyr

Compound	Kd (Bacillus subtilis) [µM]	Frel (Nucleic Acid)
NCCC(O)C(=O)N[C@@H]1C[C@H](N)[C@@H](O[C@H]2O[C@H](CN)[C@@H](O)[C@H](O)[C@H]2O)[C@H](O)[C@H]1O[C@H]1O[C@H](CO)[C@@H](O)[C@H](N)[C@H]1O (single isomer, unassigned) [AMIKACIN]	760	0.29
[H]/N=C(/N)N[C@H]1[C@H](O)[C@@H](O)[C@H](O[C@@H]2O[C@@H](C)[C@](O)(C=O)[C@H]2O[C@@H]2O[C@@H](CO)[C@H](O)[C@@H](O)[C@@H]2NC)[C@@H](N/C(N)=N\[H])[C@@H]1O (stereo in doubt) [STREPTOMYCIN]	790	0.34
NC[C@H]1O[C@H](O[C@H]2[C@H](O)[C@@H](O[C@H]3O[C@H](CO)[C@@H](O)[C@H](N)[C@H]3O)[C@H](N)C[C@@H]2N)[C@H](N)[C@@H](O)[C@@H]1O [BEKANAMYCIN]	150	0.38
NC[C@@H]1O[C@H](O[C@H]2[C@@H](O)[C@H](O[C@@H]3[C@@H](O)[C@H](N)C[C@H](N)[C@H]3O[C@H]3O[C@H](CN)[C@@H](O)[C@H](O)[C@H]3N)O[C@@H]2CO)[C@H](N)[C@@H](O)[C@@H]1O [FRAMYCETIN]	8.5	0.46
CN[C@@H]1[C@@H](O)[C@@H](O[C@@H]2[C@@H](O)[C@H](O[C@H]3O[C@H]([C@@H](C)NC)CC[C@H]3N)[C@@H](N)C[C@H]2N)OC[C@]1(C)O [GENTAMICIN C1]	120	0.8
CN[C@@H]1[C@@H](O)[C@@H](O[C@@H]2[C@@H](O)[C@H](O[C@H]3O[C@H](C(C)N)CC[C@H]3N)[C@@H](N)C[C@H]2N)OC[C@]1(C)O (stereo partly drawn) [GENTAMICIN C2]	120	0.8
NC[C@@H]1O[C@@H](O[C@H]2[C@H](O)[C@@H](O[C@H]3O[C@H](CO)[C@@H](O)[C@H](N)[C@H]3O)[C@H](N)C[C@@H]2N)[C@@H](O)[C@H](O)[C@H]1O [KANAMYCIN A]	210	
NC[C@H]1O[C@H](O[C@H]2[C@H](O)[C@@H](O[C@H]3O[C@H](CO)[C@@H](O)[C@H](N)[C@H]3O)[C@H](N)C[C@@H]2N)[C@H](O)[C@@H](O)[C@@H]1O [KANAMYCIN A]		0.21
NC[C@@H]1O[C@H](O[C@H]2[C@@H](O)[C@H](O[C@@H]3[C@@H](O)[C@H](N)C[C@H](N)[C@H]3O[C@H]3O[C@H](CO)[C@@H](O)[C@H](O)[C@H]3N)O[C@@H]2CO)[C@H](N)[C@@H](O)[C@@H]1O [PAROMOMYCIN]	50	0.41
NC[C@H]1O[C@H](O[C@H]2[C@H](O)[C@@H](O[C@H]3O[C@H](CO)[C@@H](O)[C@H](N)[C@H]3O)[C@H](N)C[C@@H]2N)[C@H](N)C[C@@H]1O [TOBRAMYCIN]	38	0.33

Reference: ChEMBL document CHEMBL1143547, “Fluorescence resonance energy transfer studies of aminoglycoside binding to a T box antiterminator RNA” (Bioorg Med Chem Lett, 2005)
